Like-named read-outs stand apart in the source and are kept apart here.
What was measured:
newly diagnosed AML = settings: 1118 newly diagnosed AML patients, cited from earlier work
AML [1] = settings: older previously untreated AML patients; venetoclax in combination with backbone chemotherapy treatments; cited from earlier work
AML [2] = assay: Survival probability of AML subjects by biomarker after venetoclax/azacitidine with or without cusatuzumab (Example 3); type: in vivo, human
Text: The following is a non-limiting example of analysis showing the response of AML subjects to treatment with a combination of venetoclax and azacitidine, or a combination of venetoclax, azacitidine and cusatuzumab, based on various different biomarkers.
FIGS. 12-15 are a series of graphs showing the survival probability of AML subjects after receiving a combination of venetoclax, azacitidine and cusatuzumab. The left panel of each of FIGS. 12-15 are all subjects for which data was available, and the right panel is a subset of the data presented in the left panel minus the subjects who received at least one stem cell transplant.
FIGS. 16-18 are a series of graphs showing the survival probability of AML subjects after receiving either a combination of venetoclax and azacitidine (top panels) or a combination of venetoclax, azacitidine and cusatuzumab (bottom panels).

Nc1ccn([C@@H]2O[C@H](CO)[C@@H](O)[C@@H]2O)c(=O)n1 [cytarabine, 4-amino-1-[(2R,3S,4S,5R)-3,4-dihydroxy-5-(hydroxymethyl)oxolan-2-yl] pyrimidin-2-one]
5-year OS (newly diagnosed AML; ELN 2022 adverse risk group): 15%
5-year OS (newly diagnosed AML; ELN 2022 favorable risk group): 55%
5-year OS (newly diagnosed AML; ELN 2022 intermediate risk group): 34%

CC1(C)CCC(CN2CCN(c3ccc(C(=O)NS(=O)(=O)c4ccc(NCC5CCOCC5)c([N+](=O)[O-])c4)c(Oc4cnc5[nH]ccc5c4)c3)CC2)=C(c2ccc(Cl)cc2)C1 [venetoclax, 4-(4-{[2-(4-Chlorophenyl)-4,4-dimethyl-1-cyclohexen-1-yl]methyl}-1-piperazinyl)-N-({3-nitro-4-[(tetrahydro-2H-pyran-4-ylmethyl)amino]phenyl}sulfonyl)-2-(1H-pyrrolo[2,3-b]pyridin-5-yloxy)benzamide]
responses (AML [1]): 60-70%

cusatuzumab: an anti-CD70 monoclonal antibody currently being tested in clinical trials for the treatment of AML
effect of adding cusatuzumab to venetoclax and azacitidine on survival (AML [2]; CD7+ AML (FIG. 16)): overcome the poor prognostic significant of CD7+ AML
effect of adding cusatuzumab to venetoclax and azacitidine on survival (AML [2]; FIG. 18 (PTPN11), text prints mutated KRAS): overcome the poor prognostic significant of mutated KRAS
effect of adding cusatuzumab to venetoclax and azacitidine on survival (AML [2]; mutated KRAS (FIG. 17)): overcome the poor prognostic significant of mutated KRAS
